Legend:
[1] = tested on: ketamine-induced working memory deficits; assay: Ketamine-disrupted radial arm maze (RAM); type: in vivo, rat; conditions: 0.01, 0.056, 0.178, 0.56 mg/kg s.c., 90 min before ketamine 10 mg/kg
Source text: Two cohorts of adult male Long-Evans rats (N=30 each) were trained in a spatial working memory task on an eight-arm RAM, (Pathfinder Maze System, Lafayette Instrument Co., Lafayette, IN), using a procedure adapted from [Ward et al. (1990)] and described in detail in [Strick et al. (2011)]. Briefly, rats were food-restricted to provide motivation to perform the RAM task. The task requires that the animals enter each arm to retrieve a reinforcement food pellets, using spatial cues in the room to remember which arms of the maze they have previously entered. Rats were individually placed on the maze and allowed to navigate until all eight arms were entered and the pellets were consumed or until 30 choices were made, or until 5 min had elapsed. Entry into an arm previously entered was counted as an error. […] Training continued until all animals had reached the training criterion, defined as two or fewer errors on two consecutive days. […] Performance on the maze was evaluated 30 min later by an observer that was blinded to treatments.
The R 3.0.1 statistical software was used to compare the error rate data. The effects of treatment and the interaction on the error rate were assessed using a one-way mixed model ANOVA using generalized least squares method from lme4 library. […]

[2] = tested on: ketamine-induced working memory deficits; assay: Spatial delayed response (SDR) task in the nonhuman primate; type: in vivo, rhesus monkeys
Source text: This study was designed to test the hypothesis that PF-6142 would provide significant protection versus the ketamine-induced working memory deficits in nonhuman primates.
Rhesus monkeys were trained to stability on a variable SDR task in a sound-attenuated Wisconsin General Testing Apparatus ([Roberts et al., 2010]). Briefly, subjects observe while the investigator baiting one of two to seven wells with a highly preferred food reward and then covers all the wells with identical square plaques. An opaque screen is then lowered for one of five variable delays, which are pseudorandomized across trials within a session. Thus, delays are defined as 0–4 N, where “N” is a value that is animal dependent and ranges from 1 to 10 s depending upon the difficulty level of the task at which an animal reaches the criterion of stable performance. At the end of the delay period, the opaque screen is raised, and the animal must select the well that had been baited to obtain a reward. Each test session consists of 20 trials wherein both the baited well and delay length are pseudorandomized across trials. Before study initiation, all subjects were required to reach stability over a period of 10 consecutive test sessions, where stability was defined as an average of 65–75% correct. Stability was attained by varying the number of wells and the delay value for each animal. Subjects were originally trained on a two-well board with an N value of 1. […] Once stability was attained for a given number of wells and N value, that combination was kept constant throughout the course of the study ([Roberts et al., 2010]). The range of stable performance for the 10 subjects was two to five wells and an N value of 1–7 s (median, four-well testing board, N = 5 s). Data were transformed using logarithmic function [log(x+5)] to improve normality and analyzed using ANOVA.
Subjects received pretreatment with vehicle (sterile saline solution) or PF-6142 (0.0015, 0.015, 0.15 mg/kg, s.c.) 4 h before cognitive testing. They then received an intramuscular injection of either vehicle (sterile saline) or ketamine (0.7–1.7 mg/kg; Fort Dodge Co.) 0.25 h before cognitive testing. […] Thus, for the present study, one monkey received 0.7 mg/kg, seven monkeys received 1.0 mg/kg, and two monkeys received 1.7 mg/kg of ketamine. The vehicle/PF-6142 and vehicle/ketamine treatments were assigned using a randomized Latin square design with a total of eight conditions. Except for the vehicle/vehicle condition, there was a minimum 2-week washout period between all acute challenges during which time animals were required to “restabilize” to baseline performance levels, which was defined as at least three consecutive testing sessions wherein cognitive performance ranged between 65% and 75% correct.

[3] = tested on: MK-801-disrupted paired-pulse facilitation; assay: Paired-pulse facilitation (PPF), CA1/subiculum to mPFC, urethane-anesthetized rat; type: in vivo
Procedure: Experiments were performed on n=10 adult male Sprague-Dawley rats (275–305 g) under urethane anesthesia (1.5 g/kg, i.p.). The femoral vein was cannulated for i.v. administration of drugs. A stimulation electrode was placed in the CA1/subiculum region (coordinates: A-P = +6.3 mm, M–L = +5.2 mm, D-V = +8.0 mm) using stereotactic methods and unilateral local field potential (LFP) was recorded by a metal monopolar macroelectrode placed into the medial PFC (mPFC; coordinates: A-P = +3.0 mm, M-L = +0.6 mm, D-V = +5.0 mm). […] Evoked responses to the first and the second stimuli were identified (P1 and P2, respectively) and the amount of PPF determined by the formula: (P2 amplitude/P1 amplitude). Waveform averages used to calculate PPF consisted of 60 consecutive stimuli. Five minutes were allowed between administration of each drug dose and the starting of the subsequent average of each 10-min period after each cumulative dose (0.1–1 mg/kg, IV). Disruption in power of LFP delta activity was measured as the percentage of power in low frequency (0–1.8 Hz) irregular activity in the total (0–4 Hz) delta power range. LFP power spectra were determined during periods concurrent with waveform averages and PPF calculation. Statistical significance was determined by means of two-tailed paired Student’s t-test.

[4] = Plasma exposure (PK), mouse; type: in vivo; conditions: 5.6 mg/kg SC, 1 h
Procedure: Across the set of experiments, PK was either collected from satellite animals or in separate, dedicated studies. In addition to plasma PK, exposures were obtained in brain tissue for rat and mouse, and plasma protein binding and brain tissue binding were measured. Using the measured exposures, partitioning, and binding parameters, and the […]

[5] = PK, brain exposure and plasma/brain tissue binding studies; type: in vivo; conditions: data not presented
Procedure: Across the set of experiments, PK was either collected from satellite animals or in separate, dedicated studies. In addition to plasma PK, exposures were obtained in brain tissue for rat and mouse, and plasma protein binding and brain tissue binding were measured. Using the measured exposures, partitioning, and binding parameters, and the
Exposures increased in a generally dose proportional manner across most of the doses used in the pharmacology studies, and inter animal variability was typically low. Exposures were obtained in brain tissues for rat and mouse, and plasma protein binding and brain tissue binding were measured.

With `Cc1cc(Oc2nccc3occc23)ccc1-c1c(C)ncc2nccn12` [PF-6142] the “ketamine-induced error rate in RAM” value [1] was “decreased the ketamine-induced error rate at all, except for the lowest dose administered”, the “percent correct on the SDR task after pretreatment + ketamine (range over doses)” value ([2]; PF-6142 0.0015-0.15 mg/kg s.c. 4 h before testing) was 42.5–52.1% and the “improvement of performance vs ketamine” value ([2]; PF-6142 0.0015-0.15 mg/kg s.c., all doses) was “more than 10 % correct”. For the same compound, the “working memory performance under normal conditions (pretreatment followed by placebo)” value ([2]; PF-6142 without ketamine) was “no effect on its own”, the “PPF values vs MK-801 challenge” value ([3]; PF-6142 1.0 mg/kg IV cumulative (p=0.006)) was “significantly higher PPF values” and the “effect on MK-801-induced changes in PPF after SCH-23390 pretreatment” value ([3]; PF-6142 1.0-3.0 mg/kg IV cumulative (3 mg/kg: p=0.89)) was “no significant effect”. For the same compound, the “ED50 for reversal of MK-801-induced effects on PPF” value ([3]; cumulative IV, Spearman-Karber, 95% confidence levels 0.21-0.57 mg/kg, n=5) was 0.35 mg/kg, the PF-6142 plasma concentration [4] was 332 ng/mL and the brain penetration ([5]; brain tissues of rat and mouse) was “fully brain penetrant”. For the same compound, the “unbound concentrations between the brain and plasma compartments” value ([5]; rat and mouse) was “approaching unity”.

Source: PMC7358525, “Characterization of PF-6142, a Novel, Non-Catecholamine Dopamine Receptor D1 Agonist, in Murine and Nonhuman Primate Models of Dopaminergic Activation” (Frontiers in Pharmacology, 2020)
